Assay results: ChEMBL document CHEMBL4819055, “Discovery of 5-(N-hydroxycarbamimidoyl) benzofuran derivatives as novel indoleamine 2,3-dioxygenase 1 (IDO1) inhibitors” (Bioorg Med Chem Lett, 2021)

Assays:
[1] = biological target: T1, Indoleamine 2,3-dioxygenase 1 (Homo sapiens, UniProt P14902); experiment: Inhibition of IDO1 in IFNgamma-stimulated human HeLa cells assessed as reduction in kynurenine formation using L-tryptophan as substrate by absorbance based analysis
[2] = biological target: T1, Indoleamine 2,3-dioxygenase 1; experiment: Inhibition of IDO1 (unknown origin) assessed as reduction in kynurenine formation using L-tryptophan as substrate by absorbance based analysis

T1 sequence (P14902 whole entry): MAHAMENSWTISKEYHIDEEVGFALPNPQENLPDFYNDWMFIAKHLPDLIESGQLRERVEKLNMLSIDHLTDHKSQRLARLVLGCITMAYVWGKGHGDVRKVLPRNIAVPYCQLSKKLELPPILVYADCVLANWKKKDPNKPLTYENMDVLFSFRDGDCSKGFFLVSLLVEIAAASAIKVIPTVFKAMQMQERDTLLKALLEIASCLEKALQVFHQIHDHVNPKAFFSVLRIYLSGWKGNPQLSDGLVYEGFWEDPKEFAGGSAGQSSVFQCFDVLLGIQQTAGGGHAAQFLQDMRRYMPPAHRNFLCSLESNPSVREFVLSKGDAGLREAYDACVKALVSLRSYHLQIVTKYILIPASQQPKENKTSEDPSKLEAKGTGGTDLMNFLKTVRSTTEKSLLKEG

IC50 [1] [µM]	IC50 [2] [µM]	Structure (SMILES)
10.8	1.3	O/N=C(/Nc1cccc(Br)c1)c1ccc2oc3ccccc3c2c1
17.6	1.5	O/N=C(/Nc1cccc(Cl)c1)c1ccc2oc(COCC3CC3)cc2c1
> 30	> 30	O/N=C(/Nc1cccc(COc2ccccc2)c1)c1ccc2occc2c1
> 30	> 30	CC(=O)c1cccc(N/C(=N/O)c2ccc3occc3c2)c1
6.1	7.1	COCc1cc2cc(/C(=N\O)Nc3cccc(F)c3)ccc2o1
10.6	11	O/N=C(/Nc1cccc(F)c1)c1ccc2oc(-c3ccccc3)cc2c1
1.2	0.71	OCc1cc2cc(/C(=N\O)Nc3cccc(Br)c3)ccc2o1
> 30	> 30	CC1CCN(C(=O)c2cccc(N/C(=N/O)c3ccc4occc4c3)c2)CC1
10.8	0.9	O/N=C(/Nc1cccc(Cl)c1)c1ccc2oc(-c3ccccc3)cc2c1
7.6	1.8	O/N=C(/Nc1cccc(Cl)c1)c1ccc2oc3ccccc3c2c1
2.6	1.6	O/N=C(/Nc1ccc(F)c(Br)c1)c1ccc2occc2c1
19	> 30	O/N=C(/Nc1ccccc1)c1ccc2occc2c1
20	32.7	O/N=C(/Nc1cccc(F)c1)c1ccc2occc2c1
> 30	> 30	Cc1ccc(N/C(=N/O)c2ccc3occc3c2)cc1C
22.8	9.6	O/N=C(/Nc1ccc(F)c(Cl)c1)c1ccc2oc3ccccc3c2c1
> 30	> 30	O=C(NCC1CCCCC1)c1cccc(N/C(=N/O)c2ccc3occc3c2)c1
> 30	> 30	O/N=C(/Nc1cccc(Oc2ccccc2)c1)c1ccc2occc2c1
> 30	> 30	CCCCOc1cccc(N/C(=N/O)c2ccc3occc3c2)c1
28.2	> 30	O/N=C(/NCc1ccccc1)c1ccc2occc2c1
2.2	1.2	O/N=C(/Nc1ccc(F)c(C(F)(F)F)c1)c1ccc2occc2c1
1.8	5.2	O/N=C(/Nc1ccc(F)c(Cl)c1)c1ccc2occc2c1
> 30	> 30	O/N=C(/Nc1ccc(Cl)cc1)c1ccc2occc2c1
16.2	> 30	O/N=C(/NCc1cccs1)c1ccc2occc2c1

IC50 [1] [µM]	IC50 [2] [µM]	Structure (SMILES)
> 30	> 30	O/N=C(/NCc1ccco1)c1ccc2occc2c1
2.4	1.7	OCc1cc2cc(/C(=N\O)Nc3cccc(F)c3)ccc2o1
> 30	> 30	COc1cc(N/C(=N/O)c2ccc3oc4ccccc4c3c2)cc(OC)c1
> 30	> 30	O=C(NCc1ccccc1)c1cccc(N/C(=N/O)c2ccc3occc3c2)c1
5.8	> 30	O/N=C(/NCc1cccc(Cl)c1)c1ccc2occc2c1
14	22.7	O/N=C(/Nc1ccc(F)c(F)c1)c1ccc2occc2c1
8.6	0.9	O/N=C(/Nc1cccc(Br)c1)c1ccc2oc(-c3ccccc3)cc2c1
> 30	> 30	O/N=C(/Nc1cccc(Cc2ccccc2)c1)c1ccc2occc2c1
> 30	> 30	O/N=C(/NCC1CC1)c1ccc2occc2c1
3.2	0.4	O/N=C(/Nc1cccc(Br)c1)c1ccc2oc(COCC3CC3)cc2c1
11.9	11	O/N=C(/Nc1cccc(-c2ccccc2)c1)c1ccc2occc2c1
29.6	3.6	O/N=C(/NCc1cccc(Cl)c1)c1ccc2oc3ccccc3c2c1
10.3	> 30	O/N=C(/Nc1ccc(Cl)c(F)c1)c1ccc2occc2c1
1.5	0.69	O/N=C(/Nc1cccc(Cl)c1)c1ccc2occc2c1
17.6	22	O/N=C(/NCc1ccc(F)c(Cl)c1)c1ccc2occc2c1
2.2	1	COCc1cc2cc(/C(=N\O)Nc3cccc(Cl)c3)ccc2o1
5.9	8	OCc1cc2cc(/C(=N\O)Nc3cccc(Cl)c3)ccc2o1
1.1	0.44	O/N=C(/Nc1cccc(Br)c1)c1ccc2occc2c1
2.5	0.93	COCc1cc2cc(/C(=N\O)Nc3cccc(Br)c3)ccc2o1
1.9	1.2	O/N=C(/Nc1cccc(C(F)(F)F)c1)c1ccc2occc2c1
16.2	2.4	O/N=C(/Nc1ccc(F)c(Br)c1)c1ccc2oc3ccccc3c2c1
8	2.2	O/N=C(/Nc1cccc(F)c1)c1ccc2oc(COCC3CC3)cc2c1
